{"source": "patent US20250230193A1", "about": "“CYCLIC COMPOUND HAVING SELECTIVE KRAS INHIBITORY EFFECT ON HRAS AND NRAS” (CHUGAI SEIYAKU KABUSHIKI KAISHA, priority 2022, published 2025)", "key": {"[1]": {"target": "GDP-bound HRAS wild-type protein (Homo sapiens, UniProt P01112)", "sequence (P01112 whole entry)": "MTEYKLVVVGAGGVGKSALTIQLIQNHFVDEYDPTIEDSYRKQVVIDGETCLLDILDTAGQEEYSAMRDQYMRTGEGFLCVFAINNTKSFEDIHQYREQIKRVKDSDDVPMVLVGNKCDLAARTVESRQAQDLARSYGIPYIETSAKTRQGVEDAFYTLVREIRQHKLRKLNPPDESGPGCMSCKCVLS", "assay": "Binding to HRAS by surface plasmon resonance (SPR), Single Cycle Kinetics", "conditions": "SPR"}, "[2]": {"target": "GDP-bound NRAS wild-type protein (Homo sapiens, UniProt P01111)", "sequence (P01111 whole entry)": "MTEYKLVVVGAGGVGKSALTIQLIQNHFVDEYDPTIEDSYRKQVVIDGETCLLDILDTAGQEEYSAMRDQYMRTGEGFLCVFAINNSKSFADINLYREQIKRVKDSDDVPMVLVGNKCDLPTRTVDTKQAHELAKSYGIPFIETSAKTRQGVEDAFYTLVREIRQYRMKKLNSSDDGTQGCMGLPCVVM", "assay": "Binding to NRAS by surface plasmon resonance (SPR), Single Cycle Kinetics", "conditions": "SPR"}}, "note": "*1 amine or outer side, *2 acyl side, *3 side chain or, on linkers, in order; H or OH if unused. Where a SMILES comes first, the peptide text is derived from it. Bridges are numbered along the chain shown (N, C = ends). [ ]: non-standard residue; d: D form. The star is where a group is joined. hPhe(3-Cl-4-CF3) = N[C@@H](CCc1ccc(C(F)(F)F)c(Cl)c1)C(=O)O; X18 = C=CCCN([C@@H](Cc1ccc(C(F)(F)F)cc1)C(=O)[*:2])[*:1]; NPrPhe(4-CF3) = CCCN[C@@H](Cc1ccc(C(F)(F)F)cc1)C(=O)O; NMeGly(cPent) = CN[C@H](C(=O)O)C1CCCC1; NMeD = CN[C@@H](CC(=O)O)C(=O)O; NMeL = CN[C@@H](CC(C)C)C(=O)O; Morpholide = C1CN(*)CCO1; NMeA = CN[C@@H](C)C(=O)O; Ac5c = NC1(C(=O)O)CCCC1; Aze = O=C(O)[C@@H]1CCN1; Aib = CC(C)(N)C(=O)O; Sar = CNCC(=O)O"}
{"smiles": "CC[C@H](C)[C@@H]1NC(=O)[C@@H]2CCCc3ccc(cc3)C[C@@H](C(=O)N(C)CC(=O)N[C@@H](CCc3ccc(C(F)(F)F)c(OC)c3)C(=O)N3CC4(CC4)C[C@H]3C(=O)NC3(CC(C)(C)C3)C(=O)N(C)[C@@H](C3CCCC3)C(=O)N(C)[C@H](C(=O)N(C)CC)CC(=O)N2C)N2CC/C=C\\C[C@@H](C2=O)N(C)C(=O)CN(C)C1=O", "note": "[PP3087]", "values": [{"measurement": "HRAS/KRAS (ratio of KD value with respect to GDP-bound HRAS wild-type protein to KD value with respect to KRAS)", "setting": "[1]; GDP-bound wild-type proteins", "value": "B (a compound having 3 or more and less than 10 is denoted as B)"}, {"measurement": "NRAS/KRAS (ratio of KD value with respect to GDP-bound NRAS wild-type protein to KD value with respect to KRAS)", "setting": "[2]; GDP-bound wild-type proteins", "value": "A (a compound having 10 or more and less than 20 is denoted as A)"}]}
{"smiles": "CCO[C@@H]1C[C@H]2C(=O)NC3(CCC3)C(=O)N(C)[C@@H](C3CCCC3)C(=O)N(C)[C@H](C(=O)N(C)C)CC(=O)N(C)[C@@H](CC3CCCCC3)C(=O)N[C@@H]([C@@H](C)CC)C(=O)N(C)CC(=O)N(C)[C@H]3CCCCCN(C3=O)[C@@H](Cc3ccc(C(F)(F)F)cc3)C(=O)N(C)CC(=O)N[C@@H](CCc3cc(F)c(C(F)(F)F)c(F)c3)C(=O)N2C1", "note": "[PP0671]", "values": [{"measurement": "HRAS/KRAS (ratio of KD value with respect to GDP-bound HRAS wild-type protein to KD value with respect to KRAS)", "setting": "[1]", "value": "B (a compound having 3 or more and less than 10 is denoted as B)"}, {"measurement": "NRAS/KRAS (ratio of KD value with respect to GDP-bound NRAS wild-type protein to KD value with respect to KRAS)", "setting": "[2]", "value": "B (a compound having 3 or more and less than 10 is denoted as B)"}]}
{"smiles": "C=CCCN1C(=O)[C@@H]2CCN2C(=O)[C@H](C)N(C)C(=O)[C@H]([C@@H](C)CC)NC(=O)[C@H](CC(C)C)N(C)C(=O)C[C@@H](C(=O)N2CCOCC2)N(C)C(=O)[C@H](C2CCCC2)N(C)C(=O)C2(CCCC2)NC(=O)[C@@H]2CCCN2C(=O)[C@H](CCc2ccc(C(F)(F)F)c(Cl)c2)NC(=O)CN(C)C(=O)[C@@H]1Cc1ccc(C(F)(F)F)cc1", "note": "[PP0115] ([NMeL]I[NMeA][Aze][X18][Sar][hPhe(3-Cl-4-CF3)]P[Ac5c][NMeGly(cPent)][NMeD]-Morpholide; lactam N-11)", "values": [{"measurement": "HRAS/KRAS (ratio of KD for GDP-bound HRAS wild-type to KD for KRAS)", "setting": "[1]", "value": "C (A compound having a KD ratio of 0.1 or more and less than 3 is denoted as C)"}, {"measurement": "NRAS/KRAS (ratio of KD for GDP-bound NRAS wild-type to KD for KRAS)", "setting": "[2]", "value": "C (A compound having a KD ratio of 0.1 or more and less than 3 is denoted as C)"}]}
{"smiles": "CCO[C@@H]1C[C@H]2C(=O)NC3(CCC3)C(=O)N(C)[C@@H](C3CCCC3)C(=O)N(C)[C@H](C(=O)N(C)C)CC(=O)N(C)[C@@H](CC)C(=O)N[C@@H]([C@@H](C)CC)C(=O)N(C)CC(=O)N(C)[C@H]3CCCCN(C3=O)[C@@H](Cc3ccc(C(F)(F)F)cc3)C(=O)N(C)CC(=O)N[C@@H](CCc3cc(Cl)c(Cl)c(Cl)c3)C(=O)N2C1", "note": "[PP0988]", "values": [{"measurement": "HRAS/KRAS (ratio of KD value with respect to HRAS to KD value with respect to KRAS)", "setting": "[1]; KD ratio, GDP-bound HRAS wild-type vs GDP-bound KRAS wild-type", "value": "B (a compound having 3 or more and less than 10 is denoted as B)"}, {"measurement": "NRAS/KRAS (ratio of KD value with respect to NRAS to KD value with respect to KRAS)", "setting": "[2]; KD ratio, GDP-bound NRAS wild-type vs GDP-bound KRAS wild-type", "value": "C (A compound having a KD ratio of 0.1 or more and less than 3 is denoted as C)"}]}
{"smiles": "CCCN1C(=O)[C@@H]2CCN2C(=O)[C@H](C)N(C)C(=O)[C@H]([C@@H](C)CC)NC(=O)[C@H](CC(C)C)N(C)C(=O)C[C@@H](C(=O)N2CCOCC2)N(C)C(=O)[C@H](C2CCCC2)N(C)C(=O)C(C)(C)NC(=O)[C@@H]2CCCN2C(=O)[C@H](CCc2ccc(C(F)(F)F)c(Cl)c2)NC(=O)CN(C)C(=O)[C@@H]1Cc1ccc(C(F)(F)F)cc1", "note": "[PP0225] ([NMeL]I[NMeA][Aze][NPrPhe(4-CF3)][Sar][hPhe(3-Cl-4-CF3)]P[Aib][NMeGly(cPent)][NMeD]-Morpholide; lactam N-11)", "values": [{"measurement": "HRAS/KRAS (ratio of KD for GDP-bound HRAS wild-type to KD for KRAS)", "setting": "[1]", "value": "C (A compound having a KD ratio of 0.1 or more and less than 3 is denoted as C)"}, {"measurement": "NRAS/KRAS (ratio of KD for GDP-bound NRAS wild-type to KD for KRAS)", "setting": "[2]", "value": "C (A compound having a KD ratio of 0.1 or more and less than 3 is denoted as C)"}]}
{"smiles": "CCO[C@@H]1C[C@H]2C(=O)NC3(CCC3)C(=O)N(C)[C@@H](C3CCCC3)C(=O)N(C)[C@H](C(=O)N(C)C)CC(=O)N(C)[C@@H](C)C(=O)N[C@@H]([C@@H](C)CC)C(=O)N(C)CC(=O)N(C)[C@H]3CCCCN(C3=O)[C@@H](Cc3ccc(C(F)(F)F)cc3)C(=O)N(C)CC(=O)N[C@@H](CCc3cc(F)c(C(F)(F)F)c(F)c3)C(=O)N2C1", "note": "[PP0587]", "values": [{"measurement": "HRAS/KRAS (ratio of KD value with respect to GDP-bound HRAS wild-type protein to KD value with respect to KRAS)", "setting": "[1]", "value": "C (A compound having a KD ratio of 0.1 or more and less than 3 is denoted as C)"}, {"measurement": "NRAS/KRAS (ratio of KD value with respect to GDP-bound NRAS wild-type protein to KD value with respect to KRAS)", "setting": "[2]", "value": "C (A compound having a KD ratio of 0.1 or more and less than 3 is denoted as C)"}]}
{"smiles": "CCC[C@H]1C(=O)N[C@@H]([C@@H](C)CC)C(=O)N(C)CC(=O)N(C)[C@H]2C/C=C\\CCN(C2=O)[C@@H](Cc2ccc(C)cc2)C(=O)N(C)CC(=O)N[C@@H](CCc2ccc(C(F)(F)F)c(OC)c2)C(=O)N2CC3(CC3)C[C@H]2C(=O)NC2(CC(C)(C)C2)C(=O)N(C)[C@@H](CC(C)(C)C)C(=O)N(C)[C@H](C(=O)N(C)C)CC(=O)N1C", "note": "[PP3009]", "values": [{"measurement": "HRAS/KRAS (ratio of KD value with respect to GDP-bound HRAS wild-type protein to KD value with respect to KRAS)", "setting": "[1]; GDP-bound wild-type proteins", "value": "A (a compound having 10 or more and less than 20 is denoted as A)"}, {"measurement": "NRAS/KRAS (ratio of KD value with respect to GDP-bound NRAS wild-type protein to KD value with respect to KRAS)", "setting": "[2]; GDP-bound wild-type proteins", "value": "A (a compound having 10 or more and less than 20 is denoted as A)"}]}
